{
  "source": "patent US12186286B2",
  "about": "(Paracelsus Neuroscience II, LLC, priority 2019, dated 2025)",
  "key": {"[1]": {"settings": "cited from earlier work; for free brain concentration / free plasma concentration / Cerebrospinal fluid (CSF) concentration: 10 mg/kg oral; for brain concentration / plasma concentration: 40 mg/kg i.p."}, "human KCa3.1": {"molecular_target": "T1, human KCa3.1 (Homo sapiens, UniProt O15554)", "T1 construct": "expressed in transfected cells", "settings": "human KCa3.1 expressed in recombinant cells; read-out: In-vitro IC50 (nM)*; cited from earlier work"}, "[2]": {"tested_on": "primary rat cortical microglia", "assay": "IL-1β release from primary microglia", "type": "cell-based", "protocol": "(§1) FIG. 4A and FIG. 4B. Effect of KCa3.1 inhibition on NO and IL-1β release from primary microglia. […] (B) Primary rat cortical microglia were incubated with LPS (3 EU/ml) for 24 hours to induce expression of IL-1β.\n(§2) After 24 hours, media was assayed for nitrite (stable metabolite of NO). […] Primary rat cortical microglia were also treated with LPS (3 EU/ml, 3 hours) to stimulate the production of pro-IL-1β."}, "[3]": {"tested_on": "~70 additional neuronal drug targets (50 neuronal receptors, 8 enzymes, 5 transporters and 7 ion channels)", "settings": "cited from earlier work"}, "[4]": {"settings": "clinical trials; cited from earlier work"}, "sickle cell disease [5]": {"tested_on": "sickle cell disease", "settings": "Phase 3, sickle cell patients, cited from earlier work"}, "[6]": {"assay": "Pharmacokinetics and CNS penetration in mouse", "type": "in vivo", "protocol": "Since experimental surgery-related inflammation is resolved seven days […] the animals are tested, it supported the hypothesis that the efficacy was mediated by inhibition of KCa3.1 on microglia in the spinal cord or brain rather than peripheral immune cells. […] Based on the rat and mouse pharmacokinetic data CNS penetrance in humans seems promising."}, "[7]": {"settings": "clinical trials, healthy volunteers and sickle cell patients; cited from earlier work"}, "sickle cell disease [8]": {"tested_on": "sickle cell disease", "settings": "Phase 2, 10 mg/day, sickle cell patients; cited from earlier work"}, "[9]": {"tested_on": "mechanical hypersensitivity induced by peripheral nerve injury", "settings": "rat, 10, 30 and 100 mg/kg p.o., only the highest dose significant; cited from earlier work"}, "locomotor activity": {"tested_on": "locomotor activity", "settings": "rat, doses required for efficacy in the chronic constriction injury model; cited from earlier work"}, "[10]": {"tested_on": "cytochrome P450-dependent enzymes", "settings": "cited from earlier work"}, "[11]": {"tested_on": "primary rat cortical microglia", "assay": "NO (nitrite) release from LPS-treated primary microglia", "type": "cell-based", "settings": "LPS 3 EU/ml, 24 hours", "protocol": "as §1, §2"}, "human CYP3A4": {"molecular_target": "human CYP3A4 (Homo sapiens, UniProt P08684)", "sequence (P08684 whole entry)": "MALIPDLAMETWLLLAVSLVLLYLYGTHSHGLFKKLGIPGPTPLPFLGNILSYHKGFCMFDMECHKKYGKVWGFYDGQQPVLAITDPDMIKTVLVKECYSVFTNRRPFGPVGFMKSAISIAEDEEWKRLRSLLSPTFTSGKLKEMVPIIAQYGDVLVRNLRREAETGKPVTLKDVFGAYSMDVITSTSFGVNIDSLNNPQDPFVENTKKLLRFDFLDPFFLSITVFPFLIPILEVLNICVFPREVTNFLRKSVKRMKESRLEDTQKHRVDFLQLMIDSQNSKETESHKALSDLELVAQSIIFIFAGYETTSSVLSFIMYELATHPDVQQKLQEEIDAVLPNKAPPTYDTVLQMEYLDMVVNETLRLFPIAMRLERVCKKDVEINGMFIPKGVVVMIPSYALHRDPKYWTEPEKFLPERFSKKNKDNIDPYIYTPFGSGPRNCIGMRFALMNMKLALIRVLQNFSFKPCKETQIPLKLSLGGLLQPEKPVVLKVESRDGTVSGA", "settings": "cited from earlier work"}, "[12]": {"settings": "primates; cited from earlier work"}, "ischemic stroke": {"tested_on": "ischemic stroke", "settings": "rat, cited from earlier work"}, "human CYP2B6": {"molecular_target": "T2, human CYP2B6 (Homo sapiens, UniProt P20813)", "T2 sequence (P20813 1-491)": "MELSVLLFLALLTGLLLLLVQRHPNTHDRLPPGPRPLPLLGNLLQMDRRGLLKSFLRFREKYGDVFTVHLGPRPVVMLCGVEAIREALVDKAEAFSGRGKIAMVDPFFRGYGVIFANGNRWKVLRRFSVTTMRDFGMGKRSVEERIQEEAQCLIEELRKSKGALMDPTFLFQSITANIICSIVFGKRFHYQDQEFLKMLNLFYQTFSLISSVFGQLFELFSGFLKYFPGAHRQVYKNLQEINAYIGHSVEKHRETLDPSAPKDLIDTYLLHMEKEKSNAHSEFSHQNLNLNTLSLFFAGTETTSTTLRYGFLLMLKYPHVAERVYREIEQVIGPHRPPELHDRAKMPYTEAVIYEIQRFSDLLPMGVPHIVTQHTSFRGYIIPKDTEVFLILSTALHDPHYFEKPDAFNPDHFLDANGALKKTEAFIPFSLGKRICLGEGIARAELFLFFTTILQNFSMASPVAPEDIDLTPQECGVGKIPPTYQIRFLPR", "settings": "cited from earlier work"}, "human CYP2C19": {"molecular_target": "human CYP2C19 (Homo sapiens, UniProt P33261)", "sequence (P33261 whole entry)": "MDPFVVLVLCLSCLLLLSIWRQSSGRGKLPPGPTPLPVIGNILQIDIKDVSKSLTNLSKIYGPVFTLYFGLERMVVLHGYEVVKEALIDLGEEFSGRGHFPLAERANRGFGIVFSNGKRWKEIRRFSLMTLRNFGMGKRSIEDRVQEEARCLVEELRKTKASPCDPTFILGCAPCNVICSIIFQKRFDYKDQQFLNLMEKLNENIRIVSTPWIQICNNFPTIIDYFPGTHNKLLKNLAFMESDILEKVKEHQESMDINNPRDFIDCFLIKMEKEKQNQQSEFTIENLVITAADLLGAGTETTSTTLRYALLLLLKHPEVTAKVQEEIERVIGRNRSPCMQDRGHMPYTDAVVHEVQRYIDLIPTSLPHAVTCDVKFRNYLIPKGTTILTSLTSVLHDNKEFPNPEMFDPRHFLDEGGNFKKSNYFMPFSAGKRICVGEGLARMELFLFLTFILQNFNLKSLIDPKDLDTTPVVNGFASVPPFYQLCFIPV", "settings": "cited from earlier work"}, "[13]": {"tested_on": "non-selective cation current in primary microglia", "settings": "primary microglia stimulated with LPC; cited from earlier work"}},
  "note": "Entries after “also recorded” stand apart in the source; their conditions may differ. Like-named read-outs stand apart in the source and are kept apart here.",
  "data": [
    {"compound": "O=C1CSc2ccccc2N1Cc1cccc(C(F)(F)F)c1", "note": "[NS6180, 4-[[3-(trifluoromethyl)phenyl]methyl]-2H-1,4-benzothiazin-3(4H)-one]", "values": [
      {"measurement": "Cmax-Total (nM) Plasma", "setting": "[1]; rat, 10 mg/kg p.o.", "result": 186, "unit": "nM"},
      {"measurement": "T½", "setting": "[1]; rat, 10 mg/kg p.o.", "result": 3.8, "unit": "h"},
      {"measurement": "IC50", "setting": "human KCa3.1", "result": 9.4, "unit": "nM"}
    ]},
    {"compound": "NC(=O)C(c1ccccc1)(c1ccc(F)cc1)c1ccc(F)cc1", "note": "[Senicapoc, senicapoc]", "values": [
      {"measurement": "IC50", "setting": "[2]; LPS 3 EU/ml 3 hours, then BzATP 1 mM", "result": 15, "unit": "nM"},
      {"measurement": "IC50", "setting": "[2]; figure legend: LPS 3 EU/ml for 24 hours (n=3)", "result": 1.3, "unit": "nM"},
      {"measurement": "free brain concentration", "setting": "[1]; rat, four hours post-dose", "result": 136, "unit": "nM"},
      {"measurement": "free plasma concentration", "setting": "[1]; rat, four hours post-dose", "result": 65, "unit": "nM"},
      {"measurement": "Cerebrospinal fluid (CSF) concentration", "setting": "[1]; rat, four hours post-dosing", "result": 121, "unit": "nM"},
      {"measurement": "free brain concentration", "setting": "[1]; rat, one hour post-dose", "result": 37, "unit": "nM"},
      {"measurement": "free plasma concentration", "setting": "[1]; rat, one hour post-dose", "result": 17, "unit": "nM"},
      {"measurement": "Cerebrospinal fluid (CSF) concentration", "setting": "[1]; rat, one hour post-dosing", "result": 25, "unit": "nM"},
      {"measurement": "Cmax-Unbound (nM) CSF", "setting": "[1]; rat, 10 mg/kg p.o., CSF", "result": 121, "unit": "nM"},
      {"measurement": "Cmax-Total (nM) Brain", "setting": "[1]; rat, 10 mg/kg p.o.", "result": "17,000 nM"},
      {"measurement": "Cmax-Unbound (nM) Brain", "setting": "[1]; rat, 10 mg/kg p.o.", "result": 136, "unit": "nM"},
      {"measurement": "Cmax-Total (nM) Plasma", "setting": "[1]; rat, 10 mg/kg p.o.", "result": "2,400 nM"},
      {"measurement": "Cmax-Unbound (nM) Plasma", "setting": "[1]; rat, 10 mg/kg p.o.", "result": 65, "unit": "nM"},
      {"measurement": "T½", "setting": "[1]; rat, 10 mg/kg p.o.", "result": 1, "unit": "h"},
      {"measurement": "% unbound Plasma", "setting": "[1]; rat", "result": 2.7, "unit": "%"},
      {"measurement": "blood-brain barrier crossing", "setting": "[1]; rat", "result": "cross the blood-brain barrier"},
      {"measurement": "inhibition of ~70 additional neuronal drug targets", "setting": "[3]; 1 μM", "result": "None of the targets tested was inhibited"},
      {"measurement": "off target effects", "setting": "[3]; at concentrations that block KCa3.1", "result": "no known off target effects"},
      {"measurement": "t1/2 in humans", "setting": "[4]", "result": 552, "unit": "h"},
      {"measurement": "pain outcome measures (vaso-occlusive / painful crises)", "setting": "sickle cell disease [5]", "result": "no improvement"},
      {"measurement": "pain outcome measures (vaso-occlusive / painful crises)", "setting": "sickle cell disease [5]; listed as senicapoc", "result": "no effect"},
      {"measurement": "brain versus plasma levels", "setting": "[6]", "result": "higher levels in brain than plasma"},
      {"measurement": "Cmax-Total (nM) Plasma", "setting": "[6]; 10 mg/kg p.o., plasma", "result": 709, "unit": "nM"},
      {"measurement": "fraction unbound", "setting": "[6]; brain, read-out: % unbound Brain", "result": 0.008},
      {"measurement": "Tmax", "setting": "[6]; in vivo, po, 10 mg/kg p.o.", "result": 0.33, "unit": "h"},
      {"measurement": "half-life", "setting": "[6]; in vivo, po, 10 mg/kg p.o., read-out: T½ (converted)", "result": 3.1, "unit": "h"},
      {"measurement": "fraction unbound", "setting": "[6]; plasma, read-out: % unbound Plasma", "result": 0.015},
      {"measurement": "tolerability / side effects in humans", "setting": "[7]", "result": "without any significant side effects; also recorded: well tolerated; also recorded: safe and has a low incidence of side effects"},
      {"measurement": "hematocrit and hemoglobin levels", "setting": "sickle cell disease [8]", "result": "significantly increased"},
      {"measurement": "hemolysis", "setting": "sickle cell disease [8]", "result": "reduced"},
      {"measurement": "mechanical hypersensitivity", "setting": "[9]", "result": "attenuated"},
      {"measurement": "locomotor activity", "setting": "locomotor activity", "result": "did not observe any significant impact; also recorded: did not alter activity"},
      {"measurement": "effect on cytochrome P450-dependent enzymes", "setting": "[10]", "result": "does not suffer from metabolic instability or effects on cytochrome P450"},
      {"measurement": "IC50", "setting": "[11]; average", "result": 39, "unit": "nM"},
      {"measurement": "EC50", "setting": "[11]; representative experiment (n=3), read-out: EC50, production of NO (nitrite)", "result": 0.9, "unit": "nM"}
    ]},
    {"compound": "Clc1ccccc1C(c1ccccc1)(c1ccccc1)n1cccn1", "note": "[TRAM-34]", "values": [
      {"measurement": "Cmax-Total (nM) Brain", "setting": "[1]; rat, 10 mg/kg p.o.", "result": "~2500", "unit": "nM"},
      {"measurement": "Cmax-Unbound (nM) Brain", "setting": "[1]; rat, 10 mg/kg p.o.", "result": 50, "unit": "nM"},
      {"measurement": "Cmax-Total (nM) Plasma", "setting": "[1]; rat, 10 mg/kg p.o.", "result": "~2500", "unit": "nM"},
      {"measurement": "Cmax-Unbound (nM) Plasma", "setting": "[1]; rat, 10 mg/kg p.o.", "result": 50, "unit": "nM"},
      {"measurement": "Tmax", "setting": "[1]; rat, 10 mg/kg p.o.", "result": "0.5 to 1", "unit": "h"},
      {"measurement": "T½", "setting": "[1]; rat, 10 mg/kg p.o.", "result": "~2", "unit": "h"},
      {"measurement": "brain concentration", "setting": "[1]; rat, 8 hours", "result": "~1000", "unit": "nM"},
      {"measurement": "plasma concentration", "setting": "[1]; rat, 8 hours", "result": "~1000", "unit": "nM"},
      {"measurement": "brain concentration", "setting": "[1]; rat, 12 hours", "result": 400, "unit": "nM"},
      {"measurement": "plasma concentration", "setting": "[1]; rat, 12 hours", "result": 400, "unit": "nM"},
      {"measurement": "% unbound Plasma", "setting": "[1]; rat", "result": 2, "unit": "%"},
      {"measurement": "% unbound in plasma", "setting": "[1]; rat", "result": "approximately 2%"},
      {"measurement": "half-life", "setting": "[1]; rats", "result": "~2", "unit": "h"},
      {"measurement": "IC50, CYP3A4", "setting": "human CYP3A4", "result": "low micromolar range"},
      {"measurement": "half-life", "setting": "[12]", "result": "~2", "unit": "h"},
      {"measurement": "neuronal loss", "setting": "ischemic stroke; 10 and 40 mg/kg i.p.", "result": "significantly attenuated"},
      {"measurement": "post stroke infarct volume", "setting": "ischemic stroke; 10 and 40 mg/kg i.p.", "result": "significantly attenuated"},
      {"measurement": "outcome when given 12 hours after the ischemic insult", "setting": "ischemic stroke; given 12 hours after insult", "result": "improved the outcome"},
      {"measurement": "extent of microglial ED1 staining", "setting": "ischemic stroke", "result": "significantly reduced"},
      {"measurement": "neurological deficit score", "setting": "ischemic stroke", "result": "improved"},
      {"measurement": "IC50, CYP2B6", "setting": "human CYP2B6", "result": "low micromolar range"},
      {"measurement": "IC50, CYP2C19", "setting": "human CYP2C19", "result": "low micromolar range"},
      {"measurement": "effect on cytochrome P450-dependent enzymes", "setting": "[10]", "result": "no effect"}
    ]},
    {"compound": "charybdotoxin", "values": [
      {"measurement": "effect on LPC signals", "setting": "[13]", "result": "no effect"}
    ]}
  ]
}
